The values below are quoted from earlier work in US20100112033A1, “STENTS COATED WITH NO- AND S-NITROSOTHIOL-ELUTING HYDROPHLIC POLYMERIC BLENDS” (Universidade Estadual de Campinas UNICAMP, priority 2005, published 2010).

The test system of one data set is stenosis. The following applies: applied to damaged vascular site, rabbit coronary artery.
In the next data set the test system is neointimal formation. Conditions: compared to non-nitrosated polymer.
The next data set concerns platelet aggregation. Conditions: compared to non-nitrosated polymer.
In the next data set the test system is neointimal hyperplasia. The following applies: patients, six months after stenting.

In the case of “bovine S-nitrosated albumin: nitrosated protein, a protein adduct of nitric oxide”, in the data set on stenosis, the effect on stenosis result was “proved to reduce stenosis”. Moreover, in the data set on neointimal formation, the “reduction of neointimal formation” value is on record as 40%. Besides, the “reduction of platelet aggregation” value in the data set with platelet aggregation is 50-70%.

In the case of sirulimus, in the data set on neointimal hyperplasia, the neointimal hyperplasia result was “minimal neointimal hyperplasia”.
